Laboratory results as given in patent US20060270640A1, “Method of preventing, medicating, and/or treating hypocalcemia of domestic mammal” (Mercian Corporation, priority 2004, published 2006).
“And” between values parts separate entries of the source, which are not always exact repeats. Identical values can stand only once. Like-named read-outs stand apart in the source and are kept apart here.

Tests used:
[1] = Dose-response test of 1,25-(OH)2D3, intravaginal vs intravenous: 1,25-(OH)2D3 in plasma and bioavailability (Example 3); assay type: in vivo, cow; details: for concentration at 0 h: read-out: 1,25-(OH)2D3 level in plasma
Description: (§1) Hereinafter, the present invention will further be described with reference to Examples and Comparative Example. However, the present invention is not intended to be limited to them by any means. In the examples described below, a 1,25-(OH)2D3 concentration in plasma was determined using a radioimmunoassay kit (1,25-(OH)2D RIA kit, Immunodiagnostic Systems Limited, UK). The Ca concentrations, inorganic phosphorus (iP) concentrations, and magnesium (Mg) concentrations in plasma and urine were determined by orthocresolphthalein complexone (O-CPC), molybdenum (Mo), and xylidyl blue methods, respectively. A creatinine concentration in urine was determined by a Jaffe method. Calcium (Ca), inorganic phosphorus (iP), and magnesium (Mg) concentrations in urine were indicated in the ratios relative to creatinine (Cre) (Ca/Cre, iP/Cre, and Mg/Cre, respectively).
(§2) The dose-response test of 1,25-(OH)2D3 by an intravaginal administration route was performed with five 3 to 9-year-old ovariectomized Holstein cows having body weights of 616 to 804 kg as test animals.
(§3) The cows were hitched to a partition after and provided with 5.3 kg of timothy hay, 0.18 kg of alfalfa hay, 0.71 kg of beet pulp pellet, and 1.7 kg of commercially-available grain mix on a daily basis. The cows were measured on a DM basis and freely provided with water. A daily mineral intake was set to 48.4 g for calcium, 20.2 g of inorganic phosphorus, and 12.7 g for magnesium, which sufficiently exceeded the NRC recommendation.
(§4) To the five cows, 1,25-(OH)2D3 was respectively administered at 0.125, 0.25, 0.5, and 1.0 μg/kg (by body weight) as an intravaginal dose level and 1.0 μg/kg (by body weight) as an intravenous injection dose level at an interval of 2 weeks or more according to a 5×5 Latin square design.
(§5) The 1,25-(OH)2D3 (manufactured by Mercian Corporation) used was in the form of crystalline powder, which was dissolved in 99% ethanol at 200 μg/mL and cryopreserved at −20° C. until use.
(§6) A drug composed of 5 mL of 20% ethanol solution containing 1,25-(OH)2D3 at 0.125, 0.25, 0.5, or 1.0 μg/kg (by body weight) was administered to a vaginal lumen using a Split Universal Sheath (IMV Int. CO., France) by a rectovaginal cavity method. The vulva was then bonded with an adhesive in order to prevent the 1,25-(OH)2D3 solution from being unintentionally excreted from the vaginal lumen. Intravenous administration was performed using a cannula (14-ga cannula for animals, manufactured by Nipro Medical Industries Ltd.) mounted in advance for the collection of a blood sample.
(§7) A heparinized blood sample was collected through the cannula immediately before the administration of 1,25-(OH)2D3 (0 hour) and at 2, 4, 6, 12, 24, 48, 72, 96, and 120 hours after administration.
(§8) Next, the blood was immediately centrifuged, and 1,25-(OH)2D3, calcium, inorganic phosphorus, and magnesium concentrations in plasma were determined.
It is noted that the bioavailability was determined by comparing an area under the plasma concentration-time curve (AUC) between the cow to which 1,25-(OH)2D3 was intravaginally administered at 1.0 μg/kg (by body weight) and the cow to which the same amount of 1,25-(OH)2D3 was intravenously administered, and a AUC ratio between intravaginal administration and intravenous administration was indicated by percentage.

[2] = Dose-response test of 1,25-(OH)2D3, intravaginal vs intravenous: calcium, inorganic phosphorus, magnesium in plasma (Example 3); assay type: in vivo, cow
Description: as §1, §2, §3, §4, §5, §6, §7, §8

[3] = intravenous, four dose levels (30, 90, 270, and 600 μg); increase not directly related to dose; cited from earlier work
[4] = in vivo; cited from earlier work
[5] = intravaginal, four doses 0.125-1.0 μg/kg
[6] = 0 hour, intravaginal 0.125 μg/kg
[7] = 0 hour, intravaginal 0.25 μg/kg
[8] = 24 hours after intravaginal 0.125 μg/kg
[9] = 24 hours after intravaginal 1.0 μg/kg

## C=C1/C(=C\C=C2/CCC[C@]3(C)[C@@H]([C@H](C)CCCC(C)(C)O)CC[C@@H]23)C[C@@H](O)C[C@@H]1O [1,25-(OH)2D3, 1,25-dihydroxyvitamin D3]
[1]; 2 hours after intravaginal 0.125 μg/kg
  1,25-(OH)2D3 level in plasma, peak: 2219.3 ± 812.0 pg/mL
[1]; 2 hours after intravaginal 0.25 μg/kg
  1,25-(OH)2D3 level in plasma, peak: 3448.7 ± 737.9 pg/mL
[1]; 2 hours after intravaginal 0.5 μg/kg
  1,25-(OH)2D3 level in plasma, peak: 6388.5 ± 1127.4 pg/mL
[1]; 2 hours after intravaginal 1.0 μg/kg
  1,25-(OH)2D3 level in plasma, peak: 12315.7 ± 2288.3 pg/mL
[1]; female, Holstein, bovine, plasma, other: intravaginal, 1 μg/kg, intravaginal vs intravenous, ovariectomized cows, read-out: bioavailability, share of 1,25-(OH)2D3 administered to the vaginal lumen entering the circulatory system
  bioavailability: ~93%
[1]; female, Holstein, bovine, plasma, other: intravaginal, intravaginal 0.125 μg/kg, ovariectomized cows
  concentration at 0 h: 7.4 ± 5.3 pg/mL
[1]; female, Holstein, bovine, plasma, other: intravaginal, intravaginal 0.25 μg/kg
  concentration at 0 h: 6.5 ± 1.3 pg/mL
[1]; female, Holstein, bovine, plasma, other: intravaginal, intravaginal 0.5 μg/kg
  concentration at 0 h: 8.7 ± 5.6 pg/mL
[1]; female, Holstein, bovine, plasma, other: intravaginal, intravaginal 1.0 μg/kg
  concentration at 0 h: 6.6 ± 1.6 pg/mL
[1]; intravaginal 1.0 μg/kg vs intravenous 1.0 μg/kg, one value per each of the five cows
  individual bioavailability (AUC ratio intravaginal/intravenous): 71.1% and 124.2% and 113.3% and 90.0% and 66.5%
[1]; intravaginal 0.125, 0.25, 0.5 and 1.0 μg/kg
  time of peak 1,25-(OH)2D3 level in plasma after administration: 2 h
[1]; [5]
  dose dependence of absorption from the vaginal wall: absorbed from the vaginal wall proportionately with a dose
[2]; [6]
  calcium concentration in plasma: 8.9 ± 0.5 mg/dL
  inorganic phosphorus concentration in plasma: 5.3 ± 1.0 mg/dL
  magnesium concentration in plasma: 2.2 ± 0.2 mg/dL
[2]; [7]
  calcium concentration in plasma: 8.9 ± 0.4 mg/dL
  inorganic phosphorus level in plasma: 4.7 ± 0.6 mg/dL
  magnesium concentration in plasma: 2.0 ± 0.2 mg/dL
[2]; 0 hour, intravaginal 0.5 μg/kg
  calcium concentration in plasma: 8.9 ± 0.2 mg/dL
  inorganic phosphorus concentration in plasma: 5.3 ± 0.6 mg/dL
  magnesium concentration in plasma: 2.2 ± 0.2 mg/dL
[2]; 0 hour, intravaginal 1.0 μg/kg
  calcium concentration in plasma: 8.8 ± 0.7 mg/dL
  inorganic phosphorus concentration in plasma: 5.4 ± 1.3 mg/dL
  magnesium concentration in plasma: 2.1 ± 0.1 mg/dL
[2]; 0 hour, intravenous 1.0 μg/kg
  calcium concentration in plasma: 8.8 ± 0.5 mg/dL
  inorganic phosphorus concentration in plasma: 5.2 ± 1.3 mg/dL
  magnesium concentration in plasma: 2.2 ± 0.2 mg/dL
[2]; 12 hour after intravenous 1.0 μg/kg
  inorganic phosphorus concentration in plasma: 7.2 ± 0.8 mg/dL
[2]; 12 hours (start of 12 to 120 hours) after intravaginal 0.25 μg/kg
  inorganic phosphorus level in plasma: 6.7 ± 0.9 mg/dL
[2]; 12 hours after intravaginal 0.5 μg/kg
  magnesium concentration in plasma: 1.9 ± 0.2 mg/dL
[2]; [8]
  inorganic phosphorus concentration in plasma: 7.7 ± 0.8 mg/dL
  magnesium concentration in plasma: 1.9 ± 0.1 mg/dL
[2]; 24 hours after intravaginal 0.25 μg/kg
  magnesium concentration in plasma: 1.8 ± 0.1 mg/dL
[2]; 24 hours after intravaginal 0.5 μg/kg
  inorganic phosphorus concentration in plasma: 7.9 ± 0.9 mg/dL
[2]; [9]
  inorganic phosphorus concentration in plasma: 8.0 ± 1.2 mg/dL
  magnesium concentration in plasma: 1.8 ± 0.2 mg/dL
[2]; 24 hours after intravenous 1.0 μg/kg
  magnesium concentration in plasma: 1.9 ± 0.3 mg/dL
[2]; 24 hours after intravenous 1.0 μg/kg (start of peak period)
  inorganic phosphorus concentration in plasma, peak: 9.1 ± 1.6 mg/dL
[2]; 48 hours after intravaginal 0.125 μg/kg, significantly high 12 to 120 hours
  calcium concentration in plasma, peak: 11.1 ± 0.9 mg/dL
[2]; 48 hours after intravaginal 0.25 μg/kg, significantly high 12 to 120 hours
  calcium concentration in plasma, peak: 11.2 ± 0.7 mg/dL
[2]; 48 hours after intravaginal 0.5 μg/kg, significantly high 6 to 120 hours
  calcium concentration in plasma, peak: 11.5 ± 0.6 mg/dL
[2]; 48 hours after intravaginal 1.0 μg/kg, significantly high 6 to 120 hours
  calcium concentration in plasma, peak: 12.0 ± 0.6 mg/dL
[2]; 120 hours (end of 12 to 120 hours) after intravaginal 0.25 μg/kg
  inorganic phosphorus level in plasma: 8.6 ± 1.2 mg/dL
[2]; 120 hours after intravaginal 0.125 μg/kg
  magnesium concentration in plasma: 1.8 ± 0.3 mg/dL
[2]; 120 hours after intravaginal 0.25 μg/kg
  magnesium concentration in plasma: 1.7 ± 0.2 mg/dL
[2]; 120 hours after intravaginal 0.5 μg/kg
  magnesium concentration in plasma: 1.7 ± 0.2 mg/dL
[2]; 120 hours after intravaginal 1.0 μg/kg
  magnesium concentration in plasma: 1.7 ± 0.4 mg/dL
[2]; 120 hours after intravenous 1.0 μg/kg
  magnesium concentration in plasma: 1.7 ± 0.2 mg/dL
[2]; end of peak period 'from 24 hours to 12 hours' after intravenous 1.0 μg/kg
  inorganic phosphorus concentration in plasma, peak: 9.0 ± 1.2 mg/dL
[2]; [5]
  dose-relationship of changes in calcium, inorganic phosphorus and magnesium concentrations in plasma: no dose-relationship
[2]; intravenous 1.0 μg/kg
  calcium concentration in plasma, peak: 11.5 ± 1.2 mg/dL
[3]
  excretion of calcium into urine: increases
[4]
  bioavailability of 1,25-(OH)2D3: 62% and 67%
